Experiment [1] deals with human platelet-rich plasma. Briefly: Platelet aggregation assay (PRP), Aggregation-Human/PRP/ADP. It counts as cell-based. The settings on record: 1 min, 1 minute at 37°C before aggregating agent, most often ADP 5 µM. The method, then: In addition to the ELISA GPllb-Illa assay previously described the Aggregation-Human/PRP/ADP Assay is useful for evaluating therapeutic compounds.
Platelet-rich plasma was prepared from healthy human volunteers for use in determining inhibition of platelet aggregation by the compounds. Blood was collected via a 21 gauge butterfly cannula, using a two-syringe technique into 1/10 volume of 10% trisodium citrate.
Platelet-rich plasma was prepared at room temperature by centrifugation of the citrated whole blood at 100 x g for 15 minutes. The platelet rich plasma contained approximately 200-400,000 platelets/µl.
Platelet-poor plasma was prepared by centrifugation of citrated whole blood at 12,000 x g for 2 minutes.
Platelet aggregation was assayed in a 4-channel platelet aggregation profiler (PAP-4, Biodata, Hatboro, PA) according to the manufacturers directions. Inhibition of platelet aggregation was studied by adding varying amounts of test compounds to stirred human platelet-rich plasma. Specifically, the human platelet-rich plasma was incubated with test compounds for 1 minute at 37°C prior to the addition of a variety of aggregating agents most often ADP 5 µM, but also 1 µg/ml collagen, 1 µM U46619 or 1 µM platelet activating factor.

The target in a further experiment is T1, GPIIb-IIIa (Homo sapiens, UniProt P05106+P08514).
T1 construct: Purified platelet GPIIb-IIIa receptor was prepared as described by Fitzgerald, L.A., et al; from tissue; host or cells: platelets (purified by the method of Fitzgerald et al., Anal Biochem 1985)
Briefly: GPIIb-IIIa ELISA assay (inhibition of fibrinogen binding to immobilized receptor). The note with it: purified platelet GPIIb-IIIa coated on plates; biotinylated fibrinogen 10 nM; 3 hours at 25 °C. The method, then:
In the following assay, GPllb-Illa is prepared in purified form, by a method such as described by Fitzgerald, L.A., et al., Anal Biochem (1985) 151:159-177,(the disclosure of which is incorporated herein by reference). GPIIb-IIIa is coated onto microtiter plates. The coated support is then contacted with fibrinogen and with the test material and incubated for a sufficient time to permit maximal binding of fibrinogen to the immobilized GPIIb-IIIa. Fibrinogen is typically provided at a concentration of about 5-50 nM and the test material can, if desired, be added at a series of dilution. Typical incubations are 2-4 hr at 25°C, the time and temperature being interdependent.
After incubation, the solution containing the fibrinogen and test material is removed and the level of binding of fibrinogen measured by quantitating bound fibrinogen to GPllb-llla. Any suitable means of detection may be used, but it is convenient to employ labeled fibrinogen, for example using biotinylated labels. Such methods are well known in the art.
Purified platelet GPIIb-IIIa receptor was prepared as described by Fitzgerald, L.A., et al., Anal Biochem (1985) 151:169-177. Vitronectin receptor was prepared as described by Smith, J.W., J. Bioi Chem (1988) 263:18726-18731. After purification, the receptors were stored in 0.1% Triton X-100 at 0.1-1.0 mg/ml.
The receptors were coated to the wells of 96-well flat-bottom ELISA plates (Linbro EIA-Plus microtiter plate, Flow Laboratories) after diluting 1:200 with a solution of 20 mM Tris-HCI, 150 MM NaCi, 1 mM CaCl2, pH 7.4, to reduce the Triton x-100 concentration to below its critical micellar concentration and adding an aliquot of 100 ul to each well. The wells were all allowed to incubate overnight at 4°C, and then aspirated to dryness. Additional sites were blocked by the addition of bovine serum albumin (BSA) at 35 mg/ml in the above buffer for 2 hours at 30°C to prevent nonspecific binding. The wells were then washed once with binding buffer ([…] Tris-HCI, 100 mM Nacl 2 mM CaC12, 1 mg/ml BSA).
The corresponding ligands (fibrinogen, von Willebrand Factor, orvitronectin) were conjugated to biotin using commercially available reagents and standard protocols. The labeled ligands were added to the receptor- coated wells at final concentration of 10 nM (100 ul/well) and incubated for 3 hours at 25 °C in the presence or absence of the test samples. After incubation, the wells are aspirated to dryness and bound ligand is quan- titated.
The bound protein is detected by the addition of antibiotin antibody conjugated to alkaline phosphatase followed by addition of substrate (p-nitrcphenyl phosphate), and determination of the optical density of each well at 405 nM. Decreased color development is observed in wells incubated with test samples which inhibit binding of ligand to receptor.
For orientation: In an ELISA, binding on a coated surface is turned into a signal by an enzyme label.

Each structure is given as a SMILES string.

This is an account of results in patent publication EP0655439A2, “5,6-Bicyclic glycoprotein IIb IIIa antagonists useful in inhibition of platelet aggregation” (ELI LILLY AND COMPANY, priority 1993, dated 1995).

T1 sequence (P08514 32-887 limits assumed): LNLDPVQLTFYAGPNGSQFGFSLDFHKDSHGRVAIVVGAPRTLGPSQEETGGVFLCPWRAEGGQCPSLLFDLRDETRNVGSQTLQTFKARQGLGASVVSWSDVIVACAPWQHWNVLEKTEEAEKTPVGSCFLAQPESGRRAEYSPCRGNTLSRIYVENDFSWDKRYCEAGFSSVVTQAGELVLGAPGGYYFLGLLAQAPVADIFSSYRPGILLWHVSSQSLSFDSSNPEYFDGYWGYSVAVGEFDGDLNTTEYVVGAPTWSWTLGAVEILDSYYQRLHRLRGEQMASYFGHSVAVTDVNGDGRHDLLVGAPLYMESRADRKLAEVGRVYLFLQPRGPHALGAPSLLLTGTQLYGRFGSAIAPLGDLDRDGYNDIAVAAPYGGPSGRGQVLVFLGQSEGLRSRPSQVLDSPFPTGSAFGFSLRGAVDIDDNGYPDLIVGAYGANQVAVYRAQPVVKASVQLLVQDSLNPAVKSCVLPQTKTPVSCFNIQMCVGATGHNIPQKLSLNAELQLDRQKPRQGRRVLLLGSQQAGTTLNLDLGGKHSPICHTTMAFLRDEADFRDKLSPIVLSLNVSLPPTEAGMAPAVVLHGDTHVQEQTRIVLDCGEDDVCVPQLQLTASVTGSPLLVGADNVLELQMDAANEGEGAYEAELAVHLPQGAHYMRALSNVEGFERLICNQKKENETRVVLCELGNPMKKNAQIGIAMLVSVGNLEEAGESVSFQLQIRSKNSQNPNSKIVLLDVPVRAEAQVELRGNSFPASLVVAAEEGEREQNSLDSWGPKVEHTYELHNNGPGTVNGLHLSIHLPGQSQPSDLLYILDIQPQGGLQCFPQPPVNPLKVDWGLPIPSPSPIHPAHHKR
T1 sequence (P08514 891-1039 partner limits assumed): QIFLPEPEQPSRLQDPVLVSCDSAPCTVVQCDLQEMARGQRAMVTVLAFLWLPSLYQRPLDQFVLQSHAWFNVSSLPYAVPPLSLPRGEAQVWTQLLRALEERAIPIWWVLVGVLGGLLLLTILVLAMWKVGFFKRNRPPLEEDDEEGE
T1 sequence (P05106 27-788): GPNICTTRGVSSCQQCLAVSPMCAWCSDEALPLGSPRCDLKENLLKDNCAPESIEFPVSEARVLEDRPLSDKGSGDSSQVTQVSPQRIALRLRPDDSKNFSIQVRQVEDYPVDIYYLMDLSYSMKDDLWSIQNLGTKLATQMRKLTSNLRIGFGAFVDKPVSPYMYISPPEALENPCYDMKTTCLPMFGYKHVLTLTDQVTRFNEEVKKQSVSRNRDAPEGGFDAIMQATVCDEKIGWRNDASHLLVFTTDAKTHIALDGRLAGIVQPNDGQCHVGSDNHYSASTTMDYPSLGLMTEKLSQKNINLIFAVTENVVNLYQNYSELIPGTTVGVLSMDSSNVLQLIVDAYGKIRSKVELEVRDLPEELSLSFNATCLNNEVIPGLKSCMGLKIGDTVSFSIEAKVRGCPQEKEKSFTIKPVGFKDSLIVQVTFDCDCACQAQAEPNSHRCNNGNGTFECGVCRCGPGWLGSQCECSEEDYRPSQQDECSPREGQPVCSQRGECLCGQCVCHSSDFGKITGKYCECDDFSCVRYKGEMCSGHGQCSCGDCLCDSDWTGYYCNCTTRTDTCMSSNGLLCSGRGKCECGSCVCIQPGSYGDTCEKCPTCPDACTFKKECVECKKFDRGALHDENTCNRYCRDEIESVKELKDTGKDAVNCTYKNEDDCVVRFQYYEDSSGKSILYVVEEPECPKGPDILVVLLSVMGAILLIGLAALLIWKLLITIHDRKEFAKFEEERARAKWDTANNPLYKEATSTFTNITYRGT

One may read the IC50 as the concentration that gives 50% inhibition. `N=C(N)c1ccc2oc(C(=O)NCCCCCCC(=O)O)cc2c1` [Example 22]: the IC50 in experiment [1] amounted to 0.27 µM; at GPIIb-IIIa it was 0.04 µM.

Consider `CCC(CCCCCNC(=O)c1cc2cc(C(=N)N)ccc2[nH]1)C(=O)O` (stereo not drawn) [Example 14], for which the IC50 in experiment [1] is greater than 100 µM; at GPIIb-IIIa, 21.5 µM.

Consider `N=C(N)c1ccc2[nH]c(C(=O)NCCCCC(=O)O)cc2c1` [Example 27], for which, in experiment [1], the IC50 is 100 µM.

As for `Cn1c(C(=O)NCCCCCCC(=O)O)cc2cc(C(=N)N)ccc21` [Example 30], the IC50 in experiment [1] amounted to 8 µM; on GPIIb-IIIa, 3 µM.

Regarding `CN(CCCCCCC(=O)O)C(=O)c1cc2cc(C(=N)N)ccc2[nH]1` [Example 21], the results for the IC50 (in experiment [1]; at GPIIb-IIIa) were 2.5 µM and 0.38 µM, respectively.

With `NCc1ccc2[nH]c(C(=O)NCCCCCCC(=O)O)cc2c1` [Example 36], the IC50 in experiment [1] stood at 25 µM; on GPIIb-IIIa, 4.23 µM.

In the case of `CCC(CCCCNC(=O)c1cc2cc(C(=N)N)ccc2[nH]1)CC(=O)O` (stereo not drawn) [Example 18], the figures for the IC50 (in experiment [1]; at GPIIb-IIIa) were 5.8 µM and 0.33 µM, respectively.

With `N=C(N)c1ccc2[nH]c(C(=O)NCCCCCC(=O)O)cc2c1` [Example 28], the IC50 in experiment [1] amounted to 100 µM; at GPIIb-IIIa, 42.7 µM.

In the case of `CC(CCCCNC(=O)c1cc2cc(C(=N)N)ccc2o1)CC(=O)O` (stereo not drawn) [Example 32], the IC50 in experiment [1] is 0.23 µM; at GPIIb-IIIa, 0.01 µM.

With `Cc1c(C(=O)NCCCCCCC(=O)O)[nH]c2ccc(C(=N)N)cc12` [Example 33], the IC50 is 5 µM in experiment [1] and 2.6 µM on GPIIb-IIIa.

Consider `N=C(N)c1ccc(COc2ccc3oc(C(=O)NCC(=O)O)cc3c2)cc1` [Example 35], for which the IC50 was determined as 100 µM in experiment [1] and 3.4 µM on GPIIb-IIIa.

With `CC(CCCCNC(=O)c1cc2cc(C(=N)N)ccc2s1)CC(=O)O` (stereo not drawn) [Example 31], the IC50 in experiment [1] stood at 3.3 µM; at GPIIb-IIIa, 0.32 µM.

Turning to `N=C(N)c1ccc2[nH]c(C(=O)NCCOCCCC(=O)O)cc2c1` [Example 12], the IC50 was 9 µM in experiment [1] and 1.2 µM at GPIIb-IIIa.

Turning to `CC(CCCCCNC(=O)c1cc2cc(C(=N)N)ccc2[nH]1)C(=O)O` (stereo not drawn) [Example 13], the values for the IC50 (in experiment [1]; at GPIIb-IIIa) were 28 µM and 5.25 µM, respectively.

`CCCCCCC(CCCCNC(=O)c1cc2cc(C(=N)N)ccc2[nH]1)CC(=O)O` (stereo not drawn) [Example 20]: the values for the IC50 (in experiment [1]; on GPIIb-IIIa) were 70 µM and 0.8 µM, respectively.

Turning to `N=C(N)c1ccc2cc(C(=O)NCCCCCCC(=O)O)[nH]c2c1` [Example 25], the figures for the IC50 (in experiment [1]; at GPIIb-IIIa) were 0.8 µM and 0.13 µM, respectively.

Consider `CCCCC(CCCCNC(=O)c1cc2cc(C(=N)N)ccc2[nH]1)CC(=O)O` (stereo not drawn) [Example 19], for which the values for the IC50 (in experiment [1]; on GPIIb-IIIa) were 30 µM and 0.63 µM, respectively.

`CCCC(CC1CCC(CNC(=O)c2cc3cc(C(=N)N)ccc3[nH]2)CC1)C(=O)O` (stereo not drawn) [Example 11]: the IC50 (in experiment [1]; on GPIIb-IIIa) was greater than 100 µM each time.

For `N=C(N)c1ccc2[nH]c(C(=O)NCc3ccc(CCC(=O)O)cc3)cc2c1` [Example 9], the figures for the IC50 (in experiment [1]; at GPIIb-IIIa) were 40 µM and 4.45 µM, respectively.

In the case of `N=C(N)c1ccc2sc(C(=O)NCCCCCCC(=O)O)cc2c1` [Example 23], the IC50 is 9 µM in experiment [1] and 0.74 µM at GPIIb-IIIa.

Consider `CCCCCCC(CCCCCNC(=O)c1cc2cc(C(=N)N)ccc2[nH]1)C(=O)O` (stereo not drawn) [Example 16], for which the IC50 in experiment [1] is greater than 100 µM; at GPIIb-IIIa it was 19 µM.

In the case of `CC(CCCCNC(=O)c1cc2cc(C(=N)N)ccc2[nH]1)CC(=O)O` (stereo not drawn) [Example 17], the values for the IC50 (in experiment [1]; at GPIIb-IIIa) were 2.7 µM and 0.21 µM, respectively.

Consider `N=C(N)c1ccc2[nH]c(C(=O)NCCCCCCC(=O)O)cc2c1` [Example 26], for which the IC50 in experiment [1] was 2.7 µM; on GPIIb-IIIa it was 0.7 µM.
